Source: article PMC11311998, “AR71, Histamine H3 Receptor Ligand—In Vitro and In Vivo Evaluation (Anti-Inflammatory Activity, Metabolic Stability, Toxicity, and Analgesic Action)” (International Journal of Molecular Sciences, 2024)

Tests used:
[1] = test system: SH-SY5Y cells; assay: cell number / growth, image cytometry; type: cell-based; details: Homo sapiens
Method: To evaluate the growth dynamics of SH-SY5Y cells in the presence of AR71, neuroblastoma cells were treated with increasing concentrations (0.39–25 µM) of the compound tested for 24 or 72 h. Using image cytometry, we calculated the DNA content index as a 2N/4N DNA ratio to analyse the cell cycle distribution after 24 and 72 h of incubation with AR71.
SH-SY5Y cells were initially seeded in 96-well plates at a density of 5000 cells per well in 120 μL of medium. After 24 h, the cells were exposed to different concentrations of AR71 for either 24 or 72 h. […] Subsequently, images of 16 fields per well were captured using the ArrayScan VTI HCS Reader from Thermo Fisher Scientific, Inc. (Thermo Fisher Scientific, Waltham, MA, USA), which was equipped with a 5× objective. The cell number was calculated as the sum of the Hoechst-33342-stained cell nuclei using Cell Cycle Bioapplication V3 software and expressed as a per cent of control. […] In the next step, a series of detailed images were acquired using the ArrayScan VTI HCS Reader equipped with a 10× objective to collect at least 500 nuclei/cells per replicate. The DNA cell content of single cells was analysed based on Hoechst-33342 fluorescence intensity of their nuclei using Cell Cycle Bioapplication V3 software and presented as the DNA 2N/4N ratio. […]

[2] = test system: SH-SY5Y cells; assay: viability of neuroblastoma cells (MTS assay); type: cell-based, human
Method: The toxicity of AR71 in neuroblastoma cells was evaluated with the 3-(4,5-dimethylthiazol-2-yl)-5-(3-carboxymethoxyphenyl)-2-(4-sulfophenyl)-2H-tetrazolium (MTS) assay. The cells were cultured with AR71 at various concentrations ranging from nanomolar to micromolar for 24 h.
SH-SY5Y cells (the human neuroblastoma cell line) were purchased from the American Type Culture Collection (ATCC® no. CRL-2266™; Manassas, VA, USA). The cells were grown in a complete culture medium containing DMEM/F-12 medium (Gibco no. A41920-01) supplemented with 10% foetal bovine serum (FBS, Gibco no. 10500-064), non-essential amino acids (Biowest, Nuaillé, France), and antibiotics (Life Technologies) in a humidified incubator containing 95% air and 5% CO2 at 37 °C. Experiments were performed with SH-SY5Y cells from passage (15 up to 25—W.W.).
Neurotoxicity evaluation was performed with the SH-SY5Y cell line. The cells were seeded (5 × 10^3 cells/100 μL/well) in transparent 96-well plates (Corning Falcon, no. 353072, Merck KGaA, Darmstadt, Germany), in a complete culture medium and cultured overnight. The next day, the medium was removed and replaced with a fresh one containing 0.1% DMSO (vehicle control, Veh) or increasing concentration of the AR71 compound (the concentrations studied covered the range of nanomolar and micromolar concentrations). Treatment with the compounds was performed for 24 h. At the end of the incubation time, the cells were examined under an inverted microscope to rule out possible precipitation of the compound in the culture medium. Cell viability was examined using an MTS-based CellTiter96® AQueous One Solution Cell Proliferation Assay (Promega, Madison, WI, USA) following the manufacturer’s protocol. Briefly, 20 μL of MTS solution was pipetted directly into each well containing 100 μL of culture medium with or without cells (blank) and incubated at 37 °C for 1 h. The absorbance was measured at 490 nm using the Tecan Spark multimode plate reader (Tecan, Männedorf, Switzerland). A reference wavelength of 630 nm was used to subtract the background. The viability of individual samples was calculated relative to the vehicle-treated cells (0.1% DMSO). The results are presented as means with SEMs of two independent experiments, each comprising four replicates per treatment group. Data from the MTS assay were used to determine the IC50 value. It was calculated by fitting a nonlinear regression to a sigmoidal dose–response curve in GraphPad Prism version 8.0.1 (GraphPad Software, Inc., San Diego, CA, USA).

COc1cc(/C=C/C(=O)c2ccc(OCCCN3CCCCC3)cc2)cc(OC)c1OC [AR71, (E)-3-(3,4,5-trimethoxyphenyl)-1-(4-(3-(piperidin-1-yl)propoxy)phenyl)prop-2-en-1-one]
IC50 ([1]; 24 h incubation): 8.46 µM
IC50 ([1]; 72 h incubation): 3.19 µM
loss in neuroblastoma viability vs control cells ([2]; 50 μM, 24 h): 73%
concentration from which cell metabolic activity decreased significantly (p < 0.001) ([2]; 24 h): ≥ 4.17 µM
IC50 ([2]; Homo sapiens, SH-SY5Y, 24 h incubation): 24.9 µM
effect on cell viability ([2]; concentrations up to 0.72 μM, 24 h): did not affect cell viability
